Activity calls are given as the source filed them. The calls are words filed in the database; no cut-off is given here.
Key:
[1] = target: Beta-1 adrenergic receptor (Rattus norvegicus, UniProt P18090); assay: Antagonist activity at beta1 adrenergic receptor in isolated rat atria; details: read-out: pA2 (converted)
[2] = Selectivity ratio of beta1 adrenergic receptor in isolated rat atria to beta2 adrenergic receptor in isolated rat stomach fundus
[3] = target: Beta-2 adrenergic receptor (Rattus norvegicus, UniProt P10608); assay: Antagonist activity at beta2 adrenergic receptor in isolated rat stomach fundus; details: read-out: pA2 (converted)
Felis catus [4] = species: Felis catus; assay: Selectivity ratio of antagonist activity at beta1 adrenergic receptor in cat to antagonist activity at beta2 adrenergic receptor in cat
Felis catus [5] = assay: In vivo antagonist activity at beta2 adrenergic receptor in cat assessed as vascular activity; assay type: organism-based; details: read-out: pA2 (converted)
Felis catus [6] = assay: In vivo antagonist activity at beta1 adrenergic receptor in cat assessed as myocardial activity; assay type: functional, organism-based; details: Myocardium, read-out: pA2 (converted)
[7] = target: Beta-2 adrenergic receptor (Rattus norvegicus) (UniProt P10608); assay: Agonist activity at beta2 adrenergic receptor in isolated rat stomach fundus in presence of propranolol
[8] = target: Beta-1 adrenergic receptor (Rattus norvegicus) (UniProt P18090); assay: Agonist activity at beta1 adrenergic receptor in isolated rat atria in presence of propranolol
Chain of Beta-1 adrenergic receptor (Rattus norvegicus) (P18090 whole entry, looked up): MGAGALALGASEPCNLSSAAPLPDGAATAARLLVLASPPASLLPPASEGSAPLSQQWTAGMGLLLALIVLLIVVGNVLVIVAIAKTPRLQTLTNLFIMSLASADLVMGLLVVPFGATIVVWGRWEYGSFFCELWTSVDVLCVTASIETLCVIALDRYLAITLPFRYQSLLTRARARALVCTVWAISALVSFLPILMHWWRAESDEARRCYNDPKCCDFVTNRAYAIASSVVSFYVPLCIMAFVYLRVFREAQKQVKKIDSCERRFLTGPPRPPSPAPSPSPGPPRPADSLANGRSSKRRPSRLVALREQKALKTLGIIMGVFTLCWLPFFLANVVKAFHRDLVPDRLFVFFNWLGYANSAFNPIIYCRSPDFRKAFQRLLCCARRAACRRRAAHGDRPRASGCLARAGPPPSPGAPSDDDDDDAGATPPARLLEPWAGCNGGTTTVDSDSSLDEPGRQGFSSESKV

Chain of Beta-1 adrenergic receptor (P18090 whole entry): as the sequence (P18090 whole entry, looked up) above
Chain of Beta-2 adrenergic receptor (P10608 whole entry): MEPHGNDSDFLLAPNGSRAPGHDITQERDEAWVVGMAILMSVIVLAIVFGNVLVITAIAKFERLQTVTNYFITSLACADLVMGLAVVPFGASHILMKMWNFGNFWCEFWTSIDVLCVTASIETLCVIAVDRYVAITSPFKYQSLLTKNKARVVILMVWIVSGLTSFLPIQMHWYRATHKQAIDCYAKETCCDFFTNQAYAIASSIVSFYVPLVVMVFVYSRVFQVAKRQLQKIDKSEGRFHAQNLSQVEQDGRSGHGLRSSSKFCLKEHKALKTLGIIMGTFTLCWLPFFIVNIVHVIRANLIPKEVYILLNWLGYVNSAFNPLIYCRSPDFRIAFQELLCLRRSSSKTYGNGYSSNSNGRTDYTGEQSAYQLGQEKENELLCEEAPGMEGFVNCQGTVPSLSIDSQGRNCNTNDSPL
Chain of Beta-2 adrenergic receptor (Rattus norvegicus) (P10608 whole entry, looked up): as the sequence (P10608 whole entry) above

| Structure (SMILES) | Kb [1] [µM] | Kb [3] [µM] | Activity [7] | Activity [8] | Selectivity ratio [2] | Selectivity ratio (Felis catus [4]) | Kb (Felis catus [5]) [µM] | Kb (Felis catus [6]) [µM] |
| --- | --- | --- | --- | --- | --- | --- | --- | --- |
| CNC(=O)c1ccc(OCC(O)CNC(C)C)cc1 (racemic) | 3.63 | 1000 | – | – | 275 | – | – | – |
| CC(C)NCC(O)COc1ccc2c(c1)CCCNC2=O (racemic) | 135 | 81.3 | – | – | 0.6 | – | – | – |
| CC(C)NCC(O)COc1ccc2c(c1)OCCNC2=O (racemic) | 18.2 | 45.7 | – | – | 2.5 | – | – | – |
| CC(C)NCC(O)COc1ccc2c(c1)CCCC(=O)N2 (racemic) | – | – | – | – | – | 1 | 10 | 10 |
| CC(C)NCC(O)COc1ccc2c(c1)OCC(=O)N2 (racemic) | – | – | – | – | – | 1.3 | 3.16 | 2.51 |
| C/C=C/c1ccc(OCC(O)CNC(C)C)c(OC)c1 (racemic) | 0.0501 | 1.26 | – | – | 25 | – | – | – |
| C/C=C\c1ccc(OCC(O)CNC(C)C)c(OC)c1 (racemic) | 0.2 | 0.02 | – | – | 0.1 | – | – | – |
| CC(=O)Nc1ccc(OCC(O)CNC(C)C)cc1 (stereo not given) [PRACTOLOL] | 0.339 | – | – | – | – | – | – | – |

Second part, led by results:

| Kb [1] [µM] | Kb [3] [µM] | Activity [7] | Activity [8] | Structure (SMILES) | Selectivity ratio [2] | Selectivity ratio (Felis catus [4]) | Kb (Felis catus [5]) [µM] | Kb (Felis catus [6]) [µM] |
| --- | --- | --- | --- | --- | --- | --- | --- | --- |
| 0.0631 | 0.0316 | – | – | CCc1ccc(OCC(O)CNC(C)C)cc1 (racemic) | 0.5 | – | – | – |
| 10 | 15.8 | – | – | CC(C)NCC(O)COc1ccc(C(N)=O)cc1 (racemic) | 1.6 | – | – | – |
| 0.0251 | 0.158 | – | – | CCCc1ccc(OCC(O)CNC(C)C)cc1.Cl (racemic) | 6.5 | – | – | – |
| > 316 | > 316 | inactive | inactive | CC(C)NCC(O)COc1ccc(CC2(C)OCCO2)cc1 (racemic) | – | – | – | – |

— ChEMBL document CHEMBL3244423, “Cardioselectivity as a function of molecular structure in beta-adrenoceptor blocking agents of the 1-(para-substituted aryloxy)-3-(isopropylamino)propan-2-ol type” (J Med Chem, 1978)
